Results reported in ChEMBL document CHEMBL1201862, “PubChem BioAssay data set” (2004).
One block for each compound: values may come before it. Calls of active or inactive are those of the source.

Assays:
[1] = biological target: Voltage-gated N-type calcium channel alpha-1B subunit/Amyloid beta A4 precursor protein-binding family A member 1 (Homo sapiens, UniProt Q00975+Q02410); assay: disruptors of Mint-PDZ/N-type channel peptide interaction – biochemical, HTRF, set 2, SAR follow-up (AID 434980); format: functional
X-box-binding protein 1 = X-box-binding protein 1 (Homo sapiens, UniProt P17861); format: functional, Cricetulus griseus;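 also: confirmatory dose-response counter-screen serving a CHOP assay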
Sequence of X-box-binding protein 1 (P17861 whole entry): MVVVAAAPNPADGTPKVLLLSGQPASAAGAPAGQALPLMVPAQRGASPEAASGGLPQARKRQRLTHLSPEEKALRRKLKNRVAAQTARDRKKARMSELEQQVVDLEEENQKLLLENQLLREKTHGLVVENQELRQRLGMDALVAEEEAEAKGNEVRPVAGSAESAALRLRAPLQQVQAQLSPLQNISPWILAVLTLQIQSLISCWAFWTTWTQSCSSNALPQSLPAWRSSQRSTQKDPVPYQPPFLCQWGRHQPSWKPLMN

[2] = growth suppression of beta-catenin-knockout colon cells, dose response, cell-based, HCT116, human colon tumor (AID 1045); format: functional;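 also: HCT116 colon tumor cells with beta catenin knocked out; cells exposed to compound for 60 hours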
[3] = growth suppression of PTEN-null colon cells, dose response, cell-based, HCT116 PTEN knockout (AID 1047); format: functional;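 also: HCT116 colon tumor cells with PTEN knocked out; cells exposed to compound for 60 hours before readout; potency for loss of cell viability measured by luminescence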
Cytochrome P450 2D6 = Cytochrome P450 2D6 (Homo sapiens, UniProt P10635); assay: qHTS Assay for Inhibitors and Substrates of Cytochrome P450 2D6. [Related pubchem assays: 410 ]; format: ADME; conditions: read-out: Potency
Sequence of Cytochrome P450 2D6 (P10635 whole entry): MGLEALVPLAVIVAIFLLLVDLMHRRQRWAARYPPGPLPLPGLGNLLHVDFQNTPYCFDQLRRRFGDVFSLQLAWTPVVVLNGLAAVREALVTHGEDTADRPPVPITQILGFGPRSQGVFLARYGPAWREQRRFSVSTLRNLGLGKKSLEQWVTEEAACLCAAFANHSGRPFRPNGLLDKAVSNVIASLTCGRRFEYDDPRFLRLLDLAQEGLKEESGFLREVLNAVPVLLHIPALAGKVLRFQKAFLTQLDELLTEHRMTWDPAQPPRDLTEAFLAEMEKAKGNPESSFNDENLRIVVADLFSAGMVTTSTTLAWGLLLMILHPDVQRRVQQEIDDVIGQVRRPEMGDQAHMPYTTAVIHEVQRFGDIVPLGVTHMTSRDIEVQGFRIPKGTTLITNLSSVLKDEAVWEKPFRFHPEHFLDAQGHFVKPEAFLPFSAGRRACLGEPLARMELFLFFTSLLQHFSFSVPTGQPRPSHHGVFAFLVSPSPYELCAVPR

Cytochrome P450 2C9 = Cytochrome P450 2C9 (Homo sapiens, UniProt P11712); conditions: Potency
Sequence of Cytochrome P450 2C9 (P11712 whole entry): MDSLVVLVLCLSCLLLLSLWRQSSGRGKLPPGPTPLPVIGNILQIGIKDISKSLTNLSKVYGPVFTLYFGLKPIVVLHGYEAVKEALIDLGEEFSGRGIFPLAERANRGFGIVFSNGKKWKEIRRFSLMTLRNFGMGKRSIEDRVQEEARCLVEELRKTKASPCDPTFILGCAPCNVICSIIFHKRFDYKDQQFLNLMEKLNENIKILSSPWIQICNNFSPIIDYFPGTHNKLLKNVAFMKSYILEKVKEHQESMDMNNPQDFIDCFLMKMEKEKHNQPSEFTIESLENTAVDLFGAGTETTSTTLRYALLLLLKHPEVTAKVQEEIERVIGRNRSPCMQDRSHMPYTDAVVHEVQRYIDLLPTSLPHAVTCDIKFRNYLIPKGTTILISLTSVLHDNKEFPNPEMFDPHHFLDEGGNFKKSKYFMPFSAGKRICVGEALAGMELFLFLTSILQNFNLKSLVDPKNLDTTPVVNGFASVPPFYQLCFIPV

[4] = biological target: T1, Eukaryotic translation initiation factor 2-alpha kinase 3 (Homo sapiens, UniProt Q9NZJ5); assay: Counterscreen assay for PERK inhibitors: Dose response cell-based high throughput screening assay to measure inhibition of PERK at 6 hours. [Related pubchem assays: 1522, 1416 ]; format: functional
T1 sequence (Q9NZJ5 whole entry): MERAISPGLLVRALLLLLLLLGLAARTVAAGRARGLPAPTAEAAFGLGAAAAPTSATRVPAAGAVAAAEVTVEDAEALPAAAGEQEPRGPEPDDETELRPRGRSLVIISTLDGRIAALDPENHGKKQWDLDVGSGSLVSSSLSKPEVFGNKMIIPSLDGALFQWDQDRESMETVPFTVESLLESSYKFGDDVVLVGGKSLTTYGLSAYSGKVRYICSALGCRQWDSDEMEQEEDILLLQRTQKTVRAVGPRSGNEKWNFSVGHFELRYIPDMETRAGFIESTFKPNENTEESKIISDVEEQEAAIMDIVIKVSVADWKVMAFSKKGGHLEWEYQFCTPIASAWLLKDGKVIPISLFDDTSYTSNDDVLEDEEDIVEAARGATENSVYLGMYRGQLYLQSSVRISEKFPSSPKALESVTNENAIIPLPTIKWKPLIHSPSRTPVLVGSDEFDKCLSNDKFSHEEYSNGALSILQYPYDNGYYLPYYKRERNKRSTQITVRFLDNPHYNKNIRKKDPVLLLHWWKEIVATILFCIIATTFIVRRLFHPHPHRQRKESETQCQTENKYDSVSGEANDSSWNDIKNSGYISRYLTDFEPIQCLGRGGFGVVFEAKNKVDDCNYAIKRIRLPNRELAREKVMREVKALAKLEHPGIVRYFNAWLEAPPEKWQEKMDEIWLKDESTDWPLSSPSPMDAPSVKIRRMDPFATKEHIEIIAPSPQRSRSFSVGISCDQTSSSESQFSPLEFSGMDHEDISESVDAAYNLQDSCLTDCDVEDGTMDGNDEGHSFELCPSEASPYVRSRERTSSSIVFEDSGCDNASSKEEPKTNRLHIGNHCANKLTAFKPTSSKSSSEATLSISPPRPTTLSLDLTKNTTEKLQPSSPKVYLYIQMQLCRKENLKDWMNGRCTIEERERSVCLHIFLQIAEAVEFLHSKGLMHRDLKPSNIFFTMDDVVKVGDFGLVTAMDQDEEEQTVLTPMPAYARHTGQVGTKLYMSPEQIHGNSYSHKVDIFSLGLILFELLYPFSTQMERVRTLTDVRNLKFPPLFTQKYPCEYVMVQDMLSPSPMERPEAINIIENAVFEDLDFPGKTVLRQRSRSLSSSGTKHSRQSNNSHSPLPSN

[5] = biological target: Mitochondrial peptide methionine sulfoxide reductase (Bos taurus, UniProt P54149); format: functional;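 also: absorbance read-out, biochemical high-throughput dose-response screen for MsrA inhibitors, confirmatory; recombinant bovine MsrA coupled to E. coli TrxB with NADPH and selenocystamine; potency is for inhibitors of MsrA activity on DMSO substrate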
Sequence of Mitochondrial peptide methionine sulfoxide reductase (P54149 whole entry): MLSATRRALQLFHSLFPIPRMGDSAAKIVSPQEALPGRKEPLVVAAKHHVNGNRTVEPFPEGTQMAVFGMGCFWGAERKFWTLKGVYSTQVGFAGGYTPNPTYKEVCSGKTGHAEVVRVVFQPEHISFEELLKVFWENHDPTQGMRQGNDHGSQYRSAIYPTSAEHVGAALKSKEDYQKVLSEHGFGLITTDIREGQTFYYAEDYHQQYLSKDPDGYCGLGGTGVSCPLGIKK

[6] = biological target: T1, Eukaryotic translation initiation factor 2-alpha kinase 3; assay: Dose response cell-based high-throughput screening assay to measure PERK inhibition. [Related pubchem assays: 1416 ]; format: functional
[7] = biological target: Glyceraldehyde-3-phosphate dehydrogenase (Homo sapiens, UniProt P04406)
Sequence of Glyceraldehyde-3-phosphate dehydrogenase (P04406 whole entry): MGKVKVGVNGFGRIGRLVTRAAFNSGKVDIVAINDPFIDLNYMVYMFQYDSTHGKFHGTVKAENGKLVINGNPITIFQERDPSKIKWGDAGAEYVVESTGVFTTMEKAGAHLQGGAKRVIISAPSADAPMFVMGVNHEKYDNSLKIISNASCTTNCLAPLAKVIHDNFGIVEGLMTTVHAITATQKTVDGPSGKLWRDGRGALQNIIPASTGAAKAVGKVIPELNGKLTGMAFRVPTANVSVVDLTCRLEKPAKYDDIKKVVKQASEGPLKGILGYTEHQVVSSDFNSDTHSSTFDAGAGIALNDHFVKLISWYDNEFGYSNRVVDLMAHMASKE

[8] = biological target: T2, Dual specificity protein phosphatase 6 (Rattus norvegicus, UniProt Q64346)
T2 sequence (Q64346 whole entry): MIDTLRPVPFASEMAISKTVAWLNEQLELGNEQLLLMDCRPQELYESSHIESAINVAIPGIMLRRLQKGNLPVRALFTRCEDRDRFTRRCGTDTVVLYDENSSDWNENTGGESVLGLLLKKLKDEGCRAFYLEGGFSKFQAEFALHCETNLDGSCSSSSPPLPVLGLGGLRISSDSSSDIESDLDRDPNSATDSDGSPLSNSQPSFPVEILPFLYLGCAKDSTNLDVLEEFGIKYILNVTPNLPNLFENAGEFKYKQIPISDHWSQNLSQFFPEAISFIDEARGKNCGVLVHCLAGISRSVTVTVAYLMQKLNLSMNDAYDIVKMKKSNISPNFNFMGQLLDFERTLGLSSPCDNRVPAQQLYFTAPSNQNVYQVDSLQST

[9] = biological target: T2, Dual specificity protein phosphatase 6; format: functional
[10] = biological target: T3, Tyrosine-protein phosphatase non-receptor type 7 (Homo sapiens, UniProt P35236); format: functional
T3 sequence (P35236 whole entry): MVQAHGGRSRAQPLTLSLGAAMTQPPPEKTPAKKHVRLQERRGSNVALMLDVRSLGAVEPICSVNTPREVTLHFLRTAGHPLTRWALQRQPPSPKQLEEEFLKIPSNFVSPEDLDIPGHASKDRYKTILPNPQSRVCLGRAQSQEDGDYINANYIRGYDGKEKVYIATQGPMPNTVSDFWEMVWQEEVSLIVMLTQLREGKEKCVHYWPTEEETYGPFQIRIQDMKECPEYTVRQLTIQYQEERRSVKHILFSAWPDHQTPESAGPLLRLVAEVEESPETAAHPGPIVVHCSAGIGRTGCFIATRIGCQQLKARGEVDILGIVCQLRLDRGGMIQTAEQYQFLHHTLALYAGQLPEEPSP

SMILES: O=C(NCCCO)c1cc(-c2ccco2)nc2ccccc12
- IC50 [1]: > 56.8 µM (inactive)

SMILES: COc1ccc(-c2[nH]ncc2/C=C(/C#N)C(=O)NC2CCCCCC2)cc1
- Absolute IC50 (XBP1) (X-box-binding protein 1): 10 µM
- EC50 [2]: 11.3 µM (active)
- EC50 [3]: 12.6 µM (active)

Further lines, results first:

- AC50 (Cytochrome P450 2D6): 39.8 µM (inconclusive)
- AC50 (Cytochrome P450 2C9): 12.6 µM (inconclusive)
SMILES: NCCC[C@@H](CC(=O)N[C@@H]1CCCC[C@H]1C(=O)N[C@H](CC(=O)N[C@@H](CCC(=O)O)CC(=O)O)Cc1c[nH]c2ccccc12)NC(=O)C[C@H](CO)NC(=O)[C@@H]1CNCC[C@H]1N

- EC50 [4]: > 55.7 µM (not active)
- IC50 [5]: 155 µM (inactive)
- EC50 [6]: > 55.7 µM (not active)
SMILES: NC(=S)N/N=C/c1ccc(/C=N/NC(N)=S)cc1

- IC50 [7]: > 100 µM (not active)
- IC50 [8]: > 100 µM (inactive)
- IC50 [9]: > 100 µM (inactive)
- IC50 [10]: > 100 µM (not active)
SMILES: O=C(O)C1Nc2cc(C(F)(F)F)ccc2S(=O)(=O)N1 (stereo not drawn)
